The values below come from BindingDB's records for doi:10.1021/jm990281p (Parke-Davis Pharmaceutical Research, 2000).

Experiment [1] has as its target T1, Gag-Pol polyprotein [489-587] (Human immunodeficiency virus 1, UniProt P04585).
T1 construct: 489-587
Nature of the experiment: Protease Inhibition Assay. Here is the method: (§1) Sensitivity of HIV-1 protease activity to protease inhibitors was determined by a peptide substrate cleavage assay. Protease products were analyzed on a reverse-phase high-pressure liquid chromatograph.

In experiment [2] the target is T2, Dimer of Gag-Pol polyprotein [489-587] (Human immunodeficiency virus 1, UniProt P12497).
T2 construct: 489-587
The experiment can be described thus: Protease Inhibition Assay. Here is the method:
as §1

As to `Cc1cc(SC2C(=O)CC(CCc3ccc(O)cc3)(C(C)C)OC2=O)c(C(C)(C)C)cc1NS(C)(=O)=O` (configuration not stated), the half-inhibitory concentration (IC50) in experiment [1] was 4 nM; in experiment [2] (pH 6.2, 37 °C) it was 4 nM.
For the compound `Cc1cc(SC2C(=O)CC(CCc3ccc(O)cc3)(C(C)C)OC2=O)c(C(C)(C)C)cc1NS(=O)(=O)c1ccc(Cl)cc1` (configuration not stated), the IC50 in experiment [1] is 5.3 nM; in experiment [2] (pH 6.2, 37 °C), 5.3 nM.
For the compound `Cc1cc(SC2C(=O)CC(CCc3ccc(O)cc3)(C(C)C)OC2=O)c(C(C)(C)C)cc1NS(=O)(=O)c1cccnc1` (configuration not stated), the IC50 in experiment [1] is 2.6 nM; in experiment [2] (pH 6.2, 37 °C) it was 2.6 nM.
With `Cc1cc(SC2C(=O)CC(C)(CCc3ccc(O)cc3)OC2=O)c(C(C)(C)C)cc1NS(C)(=O)=O` (configuration not stated), the half-inhibitory concentration (IC50) stood at 9.7 nM in experiment [1] and 9.7 nM in experiment [2] (pH 6.2, 37 °C).
`Cc1cc(SC2C(=O)CC(C)(CCc3ccc(O)cc3)OC2=O)c(C(C)(C)C)cc1NS(=O)(=O)c1ccc(C#N)cc1` (configuration not stated): the concentration for half-maximal inhibition (IC50) in experiment [1] was found to be 2.1 nM; in experiment [2] (pH 6.2, 37 °C), 2.1 nM.
Regarding `Cc1cc(SC2C(=O)CC(CCc3ccccc3)(C(C)C)OC2=O)c(C(C)(C)C)cc1N` (configuration not stated), the IC50 in experiment [1] stood at 3.6 nM; in experiment [2] (pH 6.2, 37 °C), 3.6 nM.
For the compound `Cc1cc(SC2C(=O)CC(CCc3ccccc3)(C(C)C)OC2=O)c(C(C)(C)C)cc1NS(=O)(=O)c1cccs1` (configuration not stated), the concentration for half-maximal inhibition (IC50) in experiment [1] was determined as 3.6 nM; in experiment [2] (pH 6.2, 37 °C), 3.6 nM.
Regarding `Cc1cc(SC2C(=O)CC(CCc3ccccc3)(C(C)C)OC2=O)c(C(C)(C)C)cc1NS(=O)(=O)c1cccnc1` (configuration not stated), the IC50 in experiment [1] and in experiment [2] was 3.5 nM throughout.
As to `Cc1cc(SC2C(=O)CC(CCc3ccc(O)cc3)(C(C)C)OC2=O)c(C(C)(C)C)cc1OS(=O)(=O)c1ccc(F)cc1` (configuration not stated), the IC50 in experiment [1] and in experiment [2] was 9.6 nM in each case.
Consider `Cc1cc(SC2C(=O)CC(CCc3ccc(O)cc3)(C(C)C)OC2=O)c(C(C)(C)C)cc1OS(=O)(=O)c1cccnc1` (configuration not stated), for which the IC50 in experiment [1] and in experiment [2] was 3.5 nM throughout.
As for `Cc1cc(SC2C(=O)CC(C)(CCc3ccc(O)cc3)OC2=O)c(C(C)(C)C)cc1OS(=O)(=O)c1ccccc1` (configuration not stated), the IC50 in experiment [1] and in experiment [2] was 9.8 nM throughout.
On to `Cc1cc(SC2C(=O)CC(C)(CCc3ccc(O)cc3)OC2=O)c(C(C)(C)C)cc1OS(=O)(=O)c1ccc(F)cc1` (configuration not stated), for which the IC50 in experiment [1] and in experiment [2] was 16.9 nM throughout.
As to `Cc1cc(SC2C(=O)CC(CCc3ccc(O)cc3)(C3CCCCC3)OC2=O)c(C(C)(C)C)cc1OS(=O)(=O)c1ccc(C#N)cc1` (configuration not stated), the IC50 in experiment [1] and in experiment [2] was 21 nM each time.
Consider `Cc1cc(SC2C(=O)CC(CCc3ccc(O)cc3)(C3CCCCC3)OC2=O)c(C(C)(C)C)cc1OS(=O)(=O)c1ccc(F)cc1` (configuration not stated), for which the half-inhibitory concentration (IC50) in experiment [1] and in experiment [2] was 29 nM in each case.
For `Cc1cc(SC2C(=O)CC(CCc3ccccc3)(C(C)C)OC2=O)c(C(C)(C)C)cc1OS(=O)(=O)c1cccnc1` (configuration not stated), the IC50 in experiment [1] and in experiment [2] was 14 nM each time.
Consider `Cc1cc(SC2C(=O)CC(CCc3ccc(N)cc3)(C(C)C)OC2=O)c(C(C)(C)C)cc1OS(=O)(=O)c1ccc(C#N)cc1` (configuration not stated), for which the half-inhibitory concentration (IC50) in experiment [1] and in experiment [2] was 1.3 nM in each case.
As for `CCNS(=O)(=O)Nc1cc(C(C)(C)C)c(SC2C(=O)CC(CCc3ccc(O)cc3)(C(C)C)OC2=O)cc1C` (configuration not stated), the IC50 in experiment [1] and in experiment [2] was 1.7 nM each time.
As for `CCNS(=O)(=O)Nc1cc(C(C)(C)C)c(SC2C(=O)CC(CCc3ccccc3)(C(C)C)OC2=O)cc1C` (configuration not stated), the concentration for half-maximal inhibition (IC50) in experiment [1] and in experiment [2] was 3.3 nM throughout.
For the compound `Cc1cc(SC2C(=O)CC(CCc3ccc(O)cc3)(C(C)C)OC2=O)c(C(C)(C)C)cc1NS(=O)(=O)N(C)C` (configuration not stated) [3-({2-tert-butyl-4-[(dimethylsulfamoyl)amino]-5-methylphenyl}sulfanyl)-4-hydroxy-6-[2-(4-hydroxyphenyl)ethyl]-6-(propan-2-yl)-5,6-dihydro-2H-pyran-2-one], the 50% inhibitory concentration (IC50) in experiment [1] and in experiment [2] was 3.6 nM in each case.
In the case of `Cc1cc(SC2C(=O)CC(C)(CCc3ccc(O)cc3)OC2=O)c(C(C)(C)C)cc1N` (configuration not stated) [3-[(4-amino-2-tert-butyl-5-methylphenyl)sulfanyl]-4-hydroxy-6-[2-(4-hydroxyphenyl)ethyl]-6-methyl-5,6-dihydro-2H-pyran-2-one], the half-inhibitory concentration (IC50) was found to be 13 nM in experiment [1] and 13 nM in experiment [2] (pH 6.2, 37 °C).
Consider `Cc1cc(SC2C(=O)CC(CCc3ccc(O)cc3)(C(C)C)OC2=O)c(C(C)(C)C)cc1OS(=O)(=O)c1ccc(C#N)cc1` (configuration not stated) [5-tert-butyl-4-({4-hydroxy-6-[2-(4-hydroxyphenyl)ethyl]-2-oxo-6-(propan-2-yl)-5,6-dihydro-2H-pyran-3-yl}sulfanyl)-2-methylphenyl 4-cyanobenzene-1-sulfonate], for which the IC50 in experiment [1] and in experiment [2] was 4.5 nM each time.
Turning to `Cc1cc(SC2C(=O)CC(CCc3ccc(O)cc3)(C(C)C)OC2=O)c(C(C)(C)C)cc1OS(=O)(=O)c1ccccc1` (configuration not stated) [5-tert-butyl-4-({4-hydroxy-6-[2-(4-hydroxyphenyl)ethyl]-2-oxo-6-(propan-2-yl)-5,6-dihydro-2H-pyran-3-yl}sulfanyl)-2-methylphenyl benzenesulfonate], the IC50 in experiment [1] and in experiment [2] was 10.4 nM in each case.
Consider `Cc1cc(SC2C(=O)CC(CCc3ccc(O)cc3)(C(C)C)OC2=O)c(C(C)(C)C)cc1OS(=O)(=O)c1ccccn1` (configuration not stated) [5-tert-butyl-4-({4-hydroxy-6-[2-(4-hydroxyphenyl)ethyl]-2-oxo-6-(propan-2-yl)-5,6-dihydro-2H-pyran-3-yl}sulfanyl)-2-methylphenyl pyridine-2-sulfonate], for which the half-maximal inhibitory concentration (IC50) in experiment [1] and in experiment [2] was 5 nM throughout.
With `Cc1cc(SC2C(=O)CC(CCc3ccc(O)cc3)(C(C)C)OC2=O)c(C(C)(C)C)cc1OS(=O)(=O)c1cccs1` (configuration not stated) [5-tert-butyl-4-({4-hydroxy-6-[2-(4-hydroxyphenyl)ethyl]-2-oxo-6-(propan-2-yl)-5,6-dihydro-2H-pyran-3-yl}sulfanyl)-2-methylphenyl thiophene-2-sulfonate], the IC50 in experiment [1] and in experiment [2] was 21.8 nM in each case.
Consider `Cc1cc(SC2C(=O)CC(CCc3ccc(O)cc3)(C3CCCCC3)OC2=O)c(C(C)(C)C)cc1OS(=O)(=O)c1ccccc1` (configuration not stated) [5-tert-butyl-4-({6-cyclohexyl-4-hydroxy-6-[2-(4-hydroxyphenyl)ethyl]-2-oxo-5,6-dihydro-2H-pyran-3-yl}sulfanyl)-2-methylphenyl benzenesulfonate], for which the values for the IC50 in experiment [1] and in experiment [2] were 131 nM and 130 nM, respectively.
On to `Cc1cc(SC2C(=O)CC(CCc3ccccc3)(C(C)C)OC2=O)c(C(C)(C)C)cc1OS(=O)(=O)c1ccccn1` (configuration not stated) [5-tert-butyl-4-{[4-hydroxy-2-oxo-6-(2-phenylethyl)-6-(propan-2-yl)-5,6-dihydro-2H-pyran-3-yl]sulfanyl}-2-methylphenyl pyridine-2-sulfonate], for which the IC50 in experiment [1] and in experiment [2] was 6.7 nM throughout.
As to `Cc1cc(SC2C(=O)CC(CCc3ccc(O)cc3)(C(C)C)OC2=O)c(C(C)(C)C)cc1OS(=O)(=O)N(C)C` (configuration not stated) [6-Alkyl-5,6-Dihydropyran-2-one 22], in experiment [1], inhibition was half-maximal at 3.4 nM (IC50).
Consider `Cc1cc(SC2C(=O)CC(CCc3ccccc3)(C(C)C)OC2=O)c(C(C)(C)C)cc1NS(=O)(=O)c1ccccn1` (configuration not stated) [N-(5-tert-butyl-4-{[4-hydroxy-2-oxo-6-(2-phenylethyl)-6-(propan-2-yl)-5,6-dihydro-2H-pyran-3-yl]sulfanyl}-2-methylphenyl)pyridine-2-sulfonamide], for which the IC50 in experiment [1] and in experiment [2] was 3 nM in each case.
For `Cc1cc(SC2C(=O)CC(CCc3ccc(O)cc3)(C(C)C)OC2=O)c(C(C)(C)C)cc1NS(=O)(=O)c1ccc(C(F)(F)F)cc1` (configuration not stated) [N-[5-tert-butyl-4-({4-hydroxy-6-[2-(4-hydroxyphenyl)ethyl]-2-oxo-6-(propan-2-yl)-5,6-dihydro-2H-pyran-3-yl}sulfanyl)-2-methylphenyl]-4-(trifluoromethyl)benzene-1-sulfonamide], the IC50 is 18.3 nM in experiment [1] and 18.3 nM in experiment [2] (pH 6.2, 37 °C).
On to `Cc1cc(SC2C(=O)CC(CCc3ccc(O)cc3)(C(C)C)OC2=O)c(C(C)(C)C)cc1NS(=O)(=O)c1ccc(F)cc1` (configuration not stated) [N-[5-tert-butyl-4-({4-hydroxy-6-[2-(4-hydroxyphenyl)ethyl]-2-oxo-6-(propan-2-yl)-5,6-dihydro-2H-pyran-3-yl}sulfanyl)-2-methylphenyl]-4-fluorobenzene-1-sulfonamide], for which the half-inhibitory concentration (IC50) in experiment [1] was 4.1 nM; in experiment [2] (pH 6.2, 37 °C), 4.1 nM.
For the compound `Cc1cc(SC2C(=O)CC(CCc3ccc(O)cc3)(C(C)C)OC2=O)c(C(C)(C)C)cc1NS(=O)(=O)c1ccccn1` (configuration not stated) [N-[5-tert-butyl-4-({4-hydroxy-6-[2-(4-hydroxyphenyl)ethyl]-2-oxo-6-(propan-2-yl)-5,6-dihydro-2H-pyran-3-yl}sulfanyl)-2-methylphenyl]pyridine-2-sulfonamide], the IC50 stood at 2.6 nM in experiment [1] and 2.6 nM in experiment [2] (pH 6.2, 37 °C).
Turning to `Cc1cc(SC2C(=O)CC(CCc3ccc(O)cc3)(C(C)C)OC2=O)c(C(C)(C)C)cc1NS(=O)(=O)c1cccs1` (configuration not stated) [N-[5-tert-butyl-4-({4-hydroxy-6-[2-(4-hydroxyphenyl)ethyl]-2-oxo-6-(propan-2-yl)-5,6-dihydro-2H-pyran-3-yl}sulfanyl)-2-methylphenyl]thiophene-2-sulfonamide], the IC50 in experiment [1] came out at 8.7 nM; in experiment [2] (pH 6.2, 37 °C) it was 8.7 nM.
Consider `Cc1cc(SC2C(=O)CC(C)(CCc3ccc(O)cc3)OC2=O)c(C(C)(C)C)cc1NS(=O)(=O)c1ccc(C(F)(F)F)cc1` (configuration not stated) [N-[5-tert-butyl-4-({4-hydroxy-6-[2-(4-hydroxyphenyl)ethyl]-6-methyl-2-oxo-5,6-dihydro-2H-pyran-3-yl}sulfanyl)-2-methylphenyl]-4-(trifluoromethyl)benzene-1-sulfonamide], for which the half-maximal inhibitory concentration (IC50) stood at 12.3 nM in experiment [1] and 12.3 nM in experiment [2] (pH 6.2, 37 °C).
As to `Cc1cc(SC2C(=O)CC(C)(CCc3ccc(O)cc3)OC2=O)c(C(C)(C)C)cc1NS(=O)(=O)c1ccc(Cl)cc1` (configuration not stated) [N-[5-tert-butyl-4-({4-hydroxy-6-[2-(4-hydroxyphenyl)ethyl]-6-methyl-2-oxo-5,6-dihydro-2H-pyran-3-yl}sulfanyl)-2-methylphenyl]-4-chlorobenzene-1-sulfonamide], the half-inhibitory concentration (IC50) is 3.5 nM in experiment [1] and 3.5 nM in experiment [2] (pH 6.2, 37 °C).
